In patent US20020193369A1, “Antifungal compounds and uses therefor” (priority 2000, published 2002):
Values after ≈ are worked out from the molar mass of the structure shown. Like-named read-outs stand apart in the source and are kept apart here. Marks after values point to notes of the source that are not given here.

Key:
[1] = cited from earlier work
C. albicans [2] = assay: Paper disk zones of inhibition on YPD agar plates inoculated with C. albicans; assay type: cell-based, Candida albicans; details: for zone of inhibition, combination with fluconazole: disk with fluconazole 1 mg/ml + compound 2.5 mg/ml
[3] = test system: Candida krusei Strain M13C4; assay: Killing of Candida krusei by fluconazole combinations (CFU/ml after 24 hours); assay type: cell-based; details: for effect in combination with fluconazole on C. kruzei: fluconazole at concentration exceeding its MIC; for CFU/ml after 24 hours incubation: inoculated at 6000 CFU/ml; for effect of compound alone on C. kruzei: not shown
C. albicans [4] = assay: Growth of C. albicans in liquid culture with compound alone (without fluconazole); assay type: cell-based, Candida albicans
[5] = test system: sterol composition of C. Albicans; assay: TLC analysis of sterols of C. albicans; assay type: cell-based, Candida albicans; details: 24 hours
C. albicans [6] = assay: Time-kill experiments in liquid culture of C. albicans; assay type: cell-based, Candida albicans; details: for effect on growth of the yeast, compound alone: 10 μg/ml, no fluconazole; for colonies from plating of a milliliter of culture: combination with fluconazole, culture initially 3000 CFU/ml; for drop in number of live cells after 24 hours, combination with fluconazole / drop in number of live cells after 48 hours, combination with fluconazole: fluconazole 32 μg/ml + compound 10 μg/ml
[7] = test system: Candida krusei Strain M13C4; assay: MIC of fluconazole for Candida krusei with lead compounds; assay type: cell-based; details: for MIC of fluconazole: Fluconazole + lead compound
[8] = test system: C. albicans strain ATCC 90028; assay: Fold reduction of live cells after 24 hr incubation with combinations of azoles and potentiators; assay type: cell-based, Candida albicans
Description: (§1) Eleven structural analogs of INF 801 and fourteen analogs of INF 802 were purchased from ChemBridge, Maybridge and Aldrich and tested for activity. […] The numbers presented in these two tables indicate the -fold reduction in the number of live cells after 24 hour incubation with the combinations of azoles and potentiators. The higher the number, the higher the fungicidal activity of the combination. Note that concentrations of drags are somewhat different in the two tables, so the comparison between the two tables is not meaningful. [table] [table]

C. albicans [9] = assay: Fungicidal synergy with fluconazole against C. albicans (active concentration of leads and analogs); assay type: cell-based, Candida albicans; details: for concentration at which fungicidal activity is observed: combined with high concentrations of fluconazole (16 μg/ml and more); for activity (concentration synergizing with fluconazole to a fungicidal effect): fluconazole 32 μg/ml
Description: In summary, the performed screens of the chemical library identified a number of interesting potentiators of azole activity. Of these potentiators the inventors chose for further development two lead compounds, INF 801 and INF 802. […] Unlike compound INF 799, which is active at very low concentration (2 ng/ml, see above), INF 801 and INF 802 need to be present at relatively high concentrations to be active. When combined with high concentrations of fluconazole (16 μg/ml and more), their fungicidal activity is observed at 1.25 or 2.5 μg/ml, respectively. At concentrations of the azole that are clinically relevant (4 μg/ml), they are active only at ˜5-10 μg/ml.
as §1, with “meaningful.” for “meaningful. [table] [table]”

Solubility limit = assay type: physicochemical; details: liquid culture of C. albicans
[10] = test system: C. albicans isolates (sensitive; isolate #4 over expressing MDR1); assay: microbe, parasite or virus in culture; assay type: cell-based; details: Candida albicans
[11] = test system: Candida krusei Strain M13C4; details: cited from earlier work
C. albicans isolates = details: cited from earlier work
[12] = disk soaked in fluconazole 1 mg/ml or compound 2.5 mg/ml in DMSO
[13] = fluconazole 128 μg/ml + compound 20 μg/ml
[14] = compound at 10 μg/ml, inoculum 7600 CFU/ml
[15] = compound at 5 μg/ml, inoculum 8000 CFU/ml

For CCC(C)n1ncn(-c2ccc(N3CCN(c4ccc(OCC5COC(Cn6cncn6)(c6ccc(Cl)cc6Cl)O5)cc4)CC3)cc2)c1=O (stereo not shown) [Itraconazole], the “absorption in the fasting state relative to drug taken with food” value ([1]; in vivo, po) is listed as 30%.

For O=C(O)CCn1c2ccc(Cl)cc2c2cc(Cl)ccc21 [INF 801], the “growth within zones after a week of incubation, combination with fluconazole” value (C. albicans [2]) was “no growth”, the “zone of inhibition, single agent” value (C. albicans [2]; [12]) was “narrow zones of inhibition” and the “zone of inhibition, combination with fluconazole” value (C. albicans [2]) was “large zones of inhibition lacking any growth”. For the same compound, the “effect in combination with fluconazole on C. kruzei” value [3] was “strongly fungicidal”, the “CFU/ml after 24 hours incubation” value [3, 13] was 20 CFU/ml and the “effect of compound alone on C. kruzei” value [3] was “harmless”. For the same compound, the “concentration affecting growth of C. albicans without fluconazole” value (C. albicans [4]) was “exceeding 30 μg/ml”, the “sterol pattern with fluconazole in the presence of INF 801” value ([5]; differing concentrations of fluconazole) was “substituting sterols accumulate in much smaller amounts than in the control” and the “effect on growth of the yeast, compound alone” value (C. albicans [6]) was “very little effect on the growth of the yeast”. For the same compound, the “colonies from plating of a milliliter of culture” value (C. albicans [6]) was “no colonies”, the “drop in number of live cells after 24 hours, combination with fluconazole” value (C. albicans [6]) was “two orders of magnitude” and the “drop in number of live cells after 48 hours, combination with fluconazole” value (C. albicans [6]; 48 hours) was “more than three orders of magnitude”. The MIC of fluconazole [7] was 16 µg/mL, the “fold reduction of the concentration of live cells, + Fluconazole, 16 μg/ml” value (“fold reduction of the concentration … 16 μg/ml” below) [8, 14] was 48* fold and the “fold reduction of the concentration of live cells, + Itraconazole, 0.5 μg/ml” value [8, 14] was 30 fold. For the same compound, the “fold reduction of the concentration of live cells, + Ketaconazole, 0.5 μg/ml” value [8, 14] was 28 fold and the “concentration at which fungicidal activity is observed” value (C. albicans [9]) was 1.25 µg/mL.

In the case of Clc1ccc(COC(Cn2ccnc2)c2ccc(Cl)cc2Cl)cc1 (stereo not shown) [Econazole], the “fraction absorbed into the blood” value ([1]; in vivo) is given as “Less than 1%”.

With OC(CN1CCC(/C=C/C2=CC=CCC2)CC1)Cn1c2ccccc2c2ccccc21 (stereo not shown) [DV 236683] the “activity (concentration synergizing with fluconazole to a fungicidal effect)” value (C. albicans [9]) was 5 µg/mL.

With OCC(O)Cn1c2ccc(Br)cc2c2cc(Br)ccc21 (stereo not shown) [Compound S243213] the “fold reduction of the concentration … 16 μg/ml” value [8, 14] was 6.9 fold, the “fold reduction of the concentration of live cells, + Itraconazole, 0.5 μg/ml” value [8, 14] was 6.3 fold and the “fold reduction of the concentration of live cells, + Ketaconazole, 0.5 μg/ml” value [8, 14] was 7.8 fold. For the same compound, the “activity (concentration synergizing with fluconazole to a fungicidal effect)” value (C. albicans [9]) was 0.6 µg/mL.

For O=C(O)C12c3ccccc3C(c3ccccc31)c1ccccc12 [INF 802], the solubility (Solubility limit) was 80 µg/mL (≈ 268 µM), the “growth within zones after a week of incubation, combination with fluconazole” value (C. albicans [2]) was “no growth” and the “zone of inhibition, single agent” value (C. albicans [2]; [12]) was “narrow zones of inhibition”. The “zone of inhibition, combination with fluconazole” value (C. albicans [2]) was “large zones of inhibition lacking any growth”, the “effect in combination with fluconazole on C. kruzei” value [3] was “strongly fungicidal” and the “CFU/ml after 24 hours incubation” value [3, 13] was 20 CFU/ml. For the same compound, the “effect of compound alone on C. kruzei” value [3] was “harmless”, the “concentration affecting growth of C. albicans without fluconazole” value (C. albicans [4]) was greater than 80 µg/mL and the “effect on growth of the yeast, compound alone” value (C. albicans [6]) was “very little effect on the growth of the yeast”. The “colonies from plating of a milliliter of culture” value (C. albicans [6]) was “no colonies”, the “drop in number of live cells after 24 hours, combination with fluconazole” value (C. albicans [6]) was “two orders of magnitude” and the “drop in number of live cells after 48 hours, combination with fluconazole” value (C. albicans [6]; 48 hours) was “more than three orders of magnitude”. For the same compound, the MIC of fluconazole [7] was 32 µg/mL, the “fold reduction of the concentration … 16 μg/ml” value [8, 15] was 5.5 fold and the “fold reduction of the concentration of live cells, + Itraconazole, 1 μg/ml” value [8, 15] was 5.0 fold. For the same compound, the “fold reduction of the concentration of live cells, + Ketaconazole, 1 μg/ml” value [8, 15] was 6.0 fold and the “concentration at which fungicidal activity is observed” value (C. albicans [9]) was 2.5 µg/mL.

For OCC(O)Cn1c2ccc(Cl)cc2c2cc(Cl)ccc21 (stereo not shown) [DV 236818], the “activity (concentration synergizing with fluconazole to a fungicidal effect)” value (C. albicans [9]) was 5 µg/mL.

For O=CC12c3ccccc3C(c3ccccc31)c1ccccc12 [S 060128], the “fold reduction of the concentration … 16 μg/ml” value [8, 15] was 36 fold, the “fold reduction of the concentration of live cells, + Itraconazole, 1 μg/ml” value [8, 15] was 69 fold and the “fold reduction of the concentration of live cells, + Ketaconazole, 1 μg/ml” value [8, 15] was 380 fold.

In the case of OC(Cn1cncn1)(Cn1cncn1)c1ccc(F)cc1F [Fluconazole, reference compound], the MIC80 ([10]; read-out: MIC80 of fluconazole in sensitive isolates) is reported as 0.5 to 1 µg/mL (≈ 1.63 to 3.27 µM), the MIC ([10]; read-out: MIC of fluconazole, isolate #4) is reported as 8 µg/mL and the “zone of inhibition, single agent” value (C. albicans [2]) is reported as “pronounced zone of growth inhibition”. For the same compound, the “effect of fluconazole alone on C. kruzei” value ([3]; 128 μg/ml) was “strongly fungistatic”, the “CFU/ml after 24 hours incubation” value ([3]; fluconazole 128 μg/ml alone) was 6230 CFU/ml and the “MIC of fluconazole for C. kruzei (general range)” value [11] was 8 to 128 µg/mL. For the same compound, the “absorption from the GI tract” value ([1]; in vivo) was “almost completely absorbed”, the “effect of fluconazole on ergosterol” value ([5]; increasing concentrations of fluconazole) was “decrease in the amount of ergosterol” and the “change in number of CFUs after 48 hours, fluconazole alone” value (C. albicans [6]; fluconazole 32 μg/ml, 48 hours) was “four orders of magnitude”. The MIC ([7]; Pichia kudriavzevii, STRAINM13C4, Fluconazole alone) was 64 µg/mL, the “MIC of fluconazole after 48 hours” value (C. albicans isolates; many isolates) was “exceeds 64 μg/ml” and the “MIC of fluconazole after 24 hours of incubation” value (C. albicans isolates; most isolates) was less than 4 µg/mL.

In the case of CC(=O)N1CCN(c2ccc(OCC3COC(Cn4ccnc4)(c4ccc(Cl)cc4Cl)O3)cc2)CC1 (stereo not shown) [Ketoconazole], the peak plasma concentrations ([1]; oral doses 200-800 mg) is listed as 4 to 20 µg/mL.

For Clc1ccccc1C(c1ccccc1)(c1ccccc1)n1ccnc1 [Clotrimazole], the “absorption after application to the skin” value ([1]; in vivo) is listed as “less than 0.5%” and the “absorption from the vagina” value ([1]; in vivo) is listed as 3-10%.

For OC(CN1CCC(/C=C/C2=CC=CCC2)CC1)Cn1c2ccc(Cl)cc2c2cc(Cl)ccc21 (stereo not shown) [DV 236687], the “activity (concentration synergizing with fluconazole to a fungicidal effect)” value (C. albicans [9]) was 10 µg/mL.
